# Starred links: 1 amine or outer side, 2 acyl side, 3 side chain; linkers in the order of their positions; H or OH if unused. Non-standard residues stand in square brackets, D forms with d. Residues, ends and D or L forms follow the SMILES beside them. *: point of attachment. DOTA = O=C(O)CN1CCN(CC(=O)O)CCN(CC(=O)*)CCN(CC(=O)O)CC1; αMeW = C[C@](N)(Cc1c[nH]c2ccccc12)C(=O)O; Sta = CC(C)C[C@H](N)[C@@H](O)CC(=O)O; Bta = N[C@@H](Cc1csc2ccccc12)C(=O)O; Gly(cPent) = N[C@H](C(=O)O)C1CCCC1; X1 = O=C(CN1CCC(N[*:1])CC1)[*:2]; Chg = N[C@H](C(=O)O)C1CCCCC1; dOrn = NCCC[C@@H](N)C(=O)O; hSer = N[C@@H](CCO)C(=O)O; Nle = CCCC[C@H](N)C(=O)O; dDap = NC[C@@H](N)C(=O)O; βAla = NCCC(=O)O
# Test: Plasma studies: metabolic stability in vitro in human plasma (radio RP-HPLC)
# Format: in vitro ADME
# Procedure: Metabolic stability in vitro was determined applying a procedure published by Linder et al. that was slightly modified. Immediately after labeling, human (200 μL) or murine (100 μL) plasma was added and the mixture was incubated at 37° C. for 72±2 h (or 6±0.5 h). Proteins were precipitated by treatment with ice-cold EtOH (150 μL [human], 100 μL [murine]) and ice-cold MeCN (450 μL [human], 300 μL [murine]), followed by centrifugation for 20 min at 13000 rpm. The supernatants were decanted and further analyzed using radio RP-HPLC. […]
row,Structure (SMILES),Amount of intact tracer after incubation in human plasma for 72 ± 2 h (n = 2)
1,"CC(C)C[C@H](NC(=O)C[C@H](O)[C@H](CC(C)C)NC(=O)[C@H](Cc1c[nH]cn1)NC(=O)CNC(=O)[C@@H](NC(=O)[C@H](C)NC(=O)[C@](C)(Cc1c[nH]c2ccccc12)NC(=O)[C@H](CCC(N)=O)NC(=O)[C@@H](CCCNC(=N)N)NC(=O)CN1CCC(NC(=O)CN2CCN(CC(=O)O)CCN(CC(=O)O)CCN(CC(=O)O)CC2)CC1)C(C)C)C(N)=O [DOTA-[arg^6, α-Me-Trp^8]MJ9] ({DOTA}-[X1][dR]Q[αMeW]AVGH[Sta]L-NH2)",20.1 ± 0.7
2,CC(C)C[C@H](NC(=O)C[C@H](O)[C@H](CC(C)C)NC(=O)[C@H](Cc1c[nH]cn1)NC(=O)CNC(=O)[C@@H](NC(=O)[C@H](C)NC(=O)[C@H](Cc1c[nH]c2ccccc12)NC(=O)[C@H](CCC(N)=O)NC(=O)[C@@H](CCCNC(=N)N)NC(=O)CN1CCC(NC(=O)CN2CCN(CC(=O)O)CCN(CC(=O)O)CCN(CC(=O)O)CC2)CC1)C(C)C)C(N)=O [DOTA-[arg^6]MJ9] ({DOTA}-[X1][dR]QWAVGH[Sta]L-NH2),13.5 ± 3.4
3,"CC(C)C[C@H](NC(=O)C[C@H](O)[C@H](CC(C)C)NC(=O)[C@H](Cc1c[nH]cn1)NC(=O)CNC(=O)[C@@H](NC(=O)[C@H](C)NC(=O)[C@](C)(Cc1c[nH]c2ccccc12)NC(=O)[C@H](CCC(N)=O)NC(=O)[C@@H](Cc1ccccc1)NC(=O)CN1CCC(NC(=O)CN2CCN(CC(=O)O)CCN(CC(=O)O)CCN(CC(=O)O)CC2)CC1)C1CCCCC1)C(N)=O [DOTA-[α-Me-Trp^8, Chg^10]MJ9] ({DOTA}-[X1][dF]Q[αMeW]A[Chg]GH[Sta]L-NH2)",22.6 ± 1.9
4,"CC(C)C[C@H](NC(=O)C[C@H](O)[C@H](CC(C)C)NC(=O)[C@H](Cc1c[nH]cn1)NC(=O)CNC(=O)[C@@H](NC(=O)[C@H](C)NC(=O)[C@](C)(Cc1c[nH]c2ccccc12)NC(=O)[C@H](CCC(N)=O)NC(=O)[C@@H](Cc1ccccc1)NC(=O)CN1CCC(NC(=O)CN2CCN(CC(=O)O)CCN(CC(=O)O)CCN(CC(=O)O)CC2)CC1)C1CCCC1)C(N)=O [DOTA-[α-Me-Trp^8, Cpg^10]MJ9] ({DOTA}-[X1][dF]Q[αMeW]A[Gly(cPent)]GH[Sta]L-NH2)",25.5 ± 1.9
5,"CC(C)C[C@H](NC(=O)C[C@H](O)[C@H](CC(C)C)NC(=O)[C@H](Cc1c[nH]cn1)NC(=O)CN(C)C(=O)[C@@H](NC(=O)[C@H](C)NC(=O)[C@](C)(Cc1c[nH]c2ccccc12)NC(=O)[C@H](CCC(N)=O)NC(=O)[C@@H](Cc1ccccc1)NC(=O)CN1CCC(NC(=O)CN2CCN(CC(=O)O)CCN(CC(=O)O)CCN(CC(=O)O)CC2)CC1)C(C)C)C(N)=O [DOTA-[α-Me-Trp^8, N—Me-Gly^11]MJ9]",14.3 ± 1.2
6,"CC(C)C[C@H](NC(=O)C[C@H](O)[C@H](CC(C)C)NC(=O)[C@H](Cc1c[nH]cn1)NC(=O)CNC(=O)[C@@H](NC(=O)[C@H](CO)NC(=O)[C@](C)(Cc1c[nH]c2ccccc12)NC(=O)[C@H](CCC(N)=O)NC(=O)[C@@H](Cc1ccccc1)NC(=O)CN1CCC(NC(=O)CN2CCN(CC(=O)O)CCN(CC(=O)O)CCN(CC(=O)O)CC2)CC1)C(C)C)C(N)=O [DOTA-[α-Me-Trp^8, Ser^9]MJ9] ({DOTA}-[X1][dF]Q[αMeW]SVGH[Sta]L-NH2)",22.1 ± 2.2
7,CCCC[C@H](NC(=O)[C@H](Cc1ccccc1)NC(=O)[C@H](Cc1c[nH]cn1)NC(=O)CCNC(=O)[C@@H](NC(=O)[C@H](C)NC(=O)[C@](C)(Cc1c[nH]c2ccccc12)NC(=O)[C@H](CCC(N)=O)NC(=O)[C@@H](Cc1ccccc1)NC(=O)CN1CCN(CC(=O)O)CCN(CC(=O)O)CCN(CC(=O)O)CC1)C(C)C)C(N)=O [DOTA-[α-Me-Trp^8]UL] ({DOTA}-[dF]Q[αMeW]AV[βAla]HF[Nle]-NH2),10.2 ± 2.7
8,"CCCC[C@H](NC(=O)[C@H](Cc1ccccc1)NC(=O)[C@H](Cc1c[nH]cn1)NC(=O)CCNC(=O)[C@@H](NC(=O)[C@H](C)NC(=O)[C@H](Cc1c[nH]c2ccccc12)NC(=O)[C@H](CCC(N)=O)NC(=O)[C@@H](Cc1ccccc1)NC(=O)CN1CCN(CC(=O)O)CCN(CC(=O)O)CCN(CC(=O)O)CC1)C(C)C)C(N)=O [UL, reference compound] ({DOTA}-[dF]QWAV[βAla]HF[Nle]-NH2)",4.3 ± 0.2

# Second part, the molecule after the results:
row,Amount of intact tracer after incubation in human plasma for 72 ± 2 h (n = 2),Structure (SMILES)
1,18.2 ± 1.9,"CC(C)C[C@H](NC(=O)C[C@H](O)[C@H](CC(C)C)NC(=O)[C@H](Cc1c[nH]cn1)NC(=O)CNC(=O)[C@@H](NC(=O)[C@H](C)NC(=O)[C@H](Cc1c[nH]c2ccccc12)NC(=O)[C@H](CCO)NC(=O)[C@@H](CCCNC(=N)N)NC(=O)CN1CCC(NC(=O)CN2CCN(CC(=O)O)CCN(CC(=O)O)CCN(CC(=O)O)CC2)CC1)C(C)C)C(N)=O [DOTA-[arg^6, Hse^7]MJ9] ({DOTA}-[X1][dR][hSer]WAVGH[Sta]L-NH2)"
2,5.9 ± 0.5,CC(C)C[C@H](NC(=O)C[C@H](O)[C@H](CC(C)C)NC(=O)[C@H](Cc1c[nH]cn1)NC(=O)CNC(=O)[C@@H](NC(=O)[C@H](C)NC(=O)[C@H](Cc1c[nH]c2ccccc12)NC(=O)[C@H](CCC(N)=O)NC(=O)[C@@H](Cc1ccccc1)NC(=O)CN1CCC(NC(=O)[C@@H](CN)NC(=O)[C@@H](CCCN)NC(=O)CN2CCN(CC(=O)O)CCN(CC(=O)O)CCN(CC(=O)O)CC2)CC1)C(C)C)C(N)=O [DOTA-orn^3-dap^4-MJ9] ({DOTA}-[dOrn][dDap][X1][dF]QWAVGH[Sta]L-NH2)
3,2.7 ± 0.3,CC(C)C[C@H](NC(=O)C[C@H](O)[C@H](CC(C)C)NC(=O)[C@H](Cc1c[nH]cn1)NC(=O)CNC(=O)[C@@H](NC(=O)[C@H](C)NC(=O)[C@H](Cc1csc2ccccc12)NC(=O)[C@H](CCC(N)=O)NC(=O)[C@@H](Cc1ccccc1)NC(=O)CN1CCC(NC(=O)[C@@H](CN)NC(=O)[C@@H](CCCN)NC(=O)CN2CCN(CC(=O)O)CCN(CC(=O)O)CCN(CC(=O)O)CC2)CC1)C(C)C)C(N)=O [DOTA-orn^3-dap^4-[Bta^8]MJ9] ({DOTA}-[dOrn][dDap][X1][dF]Q[Bta]AVGH[Sta]L-NH2)
4,7.9 ± 2.5,CC(C)C[C@H](NC(=O)C[C@H](O)[C@H](CC(C)C)NC(=O)[C@H](Cc1c[nH]cn1)NC(=O)CNC(=O)[C@@H](NC(=O)[C@H](C)NC(=O)[C@H](Cc1c[nH]c2ccccc12)NC(=O)[C@H](CCO)NC(=O)[C@@H](Cc1ccccc1)NC(=O)CN1CCC(NC(=O)[C@@H](CN)NC(=O)[C@@H](CCCN)NC(=O)CN2CCN(CC(=O)O)CCN(CC(=O)O)CCN(CC(=O)O)CC2)CC1)C(C)C)C(N)=O [DOTA-orn^3-dap^4-[Hse^7]MJ9] ({DOTA}-[dOrn][dDap][X1][dF][hSer]WAVGH[Sta]L-NH2)
5,16.6 ± 0.8,CC(C)C[C@H](NC(=O)C[C@H](O)[C@H](CC(C)C)NC(=O)[C@H](Cc1c[nH]cn1)NC(=O)CNC(=O)[C@@H](NC(=O)[C@H](C)NC(=O)[C@](C)(Cc1c[nH]c2ccccc12)NC(=O)[C@H](CCC(N)=O)NC(=O)[C@@H](Cc1ccccc1)NC(=O)CN1CCC(NC(=O)[C@@H](CN)NC(=O)[C@@H](CCCN)NC(=O)CN2CCN(CC(=O)O)CCN(CC(=O)O)CCN(CC(=O)O)CC2)CC1)C(C)C)C(N)=O [DOTA-orn^3-dap^4-[α-Me-Trp^8]MJ9] ({DOTA}-[dOrn][dDap][X1][dF]Q[αMeW]AVGH[Sta]L-NH2)
